Laboratory results taken from patent US9187472B2 (AbbVie Inc., priority 2012, dated 2015).

Tests used:
NAMPT = NAMPT (Homo sapiens, UniProt P43490); test: TR-FRET Binding Assay of NAMPT with PRPP; settings: with 200 μM PRPP and 2.5 mM ATP; 2 nM NAMPT, 2 nM probe, 16 hours equilibration
Method in brief: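 NAMPT 2 nM + probe 2 nM + Tb-anti-His Ab 1 nM; PRPP 200 μM, ATP 2.5 mM, DMSO 2%; 16 h equilibration before TR-FRET read.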

PC3 cells = test: NAMPT Cell Proliferation Assay; format: cell-based; settings: Homo sapiens, PC-3, 120 h, 5 days incubation, cell viability by Cell Titer Glo
Method in brief: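 Following overnight attachment in RPMI with 10% heat-inactivated FBS, PC3 cells at 500 per well receive compounds spanning 10 μM down to 1×10^−5 μM. Growth is assessed by luminescent viability read after 5 days.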

[1] = target: NAMPT (human, recombinant, C-terminally His-tagged) (Homo sapiens, UniProt P43490); test: Time-Resolved Fluorescence Resonance Energy Transfer (TR-FRET) Binding Assay of NAMPT; settings: without substrates; 6.8 nM NAMPT, 200 nM probe, 3 hours equilibration
Method in brief: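 Read-out is the time-resolved FRET ratio Em520/Em495 (excitation 337 nm) between a terbium anti-His antibody (1 nM) on the enzyme and an Oregon Green 488-labelled nicotinamide-competitive inhibitor probe (200 nM). Enzyme was 6.8 nM, DMSO 2%, pH 7.5 HEPES buffer; 3 h room-temperature equilibration preceded reading.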

Sequence of NAMPT (human, recombinant, C-terminally His-tagged) (P43490 whole entry): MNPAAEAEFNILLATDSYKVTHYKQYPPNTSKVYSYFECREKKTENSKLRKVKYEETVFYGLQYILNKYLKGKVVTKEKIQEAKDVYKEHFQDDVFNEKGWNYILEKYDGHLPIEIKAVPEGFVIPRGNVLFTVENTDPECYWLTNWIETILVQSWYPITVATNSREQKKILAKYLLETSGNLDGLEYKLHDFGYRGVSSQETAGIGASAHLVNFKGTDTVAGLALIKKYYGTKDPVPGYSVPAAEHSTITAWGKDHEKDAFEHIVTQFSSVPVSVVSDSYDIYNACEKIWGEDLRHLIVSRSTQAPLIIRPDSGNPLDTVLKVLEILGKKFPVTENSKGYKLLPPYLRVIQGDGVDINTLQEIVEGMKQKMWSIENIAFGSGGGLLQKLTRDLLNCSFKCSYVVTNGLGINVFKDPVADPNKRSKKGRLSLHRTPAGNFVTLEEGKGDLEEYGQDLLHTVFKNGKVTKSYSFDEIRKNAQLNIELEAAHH
Sequence of NAMPT (P43490 whole entry): as above

Compound | IC50 (NAMPT) [µM] | IC50 (PC3 cells) [µM] | IC50 [1] [µM]
CC(=O)N1CCC(Oc2ccc(C(=O)NCc3ccn4ccnc4c3)cc2)CC1 [Example 411, 4-[(1-acetylpiperidin-4-yl)oxy]-N-(imidazo[1,2-a]pyridin-7-ylmethyl)benzamide] | 0.000556 | 4.72 | 1.87
CC(C)C(=O)N1CCC(Oc2ccc(C(=O)NCc3ccn4ccnc4c3)cc2)CC1 [Example 412, N-(imidazo[1,2-a]pyridin-7-ylmethyl)-4-{[1-(2-methylpropanoyl)piperidin-4-yl]oxy}benzamide] | 0.000424 | 0.978 | 1.25
CC[C@H](C)C(=O)N1CCC(Oc2ccc(C(=O)NCc3ccn4ccnc4c3)cc2)CC1 [Example 413, N-(imidazo[1,2-a]pyridin-7-ylmethyl)-4-({1-[(2S)-2-methylbutanoyl]piperidin-4-yl}oxy)benzamide] | 0.000279 | 0.19 | 0.805
O=C(NCc1ccn2ccnc2c1)c1ccc(OC2CCN(C(=O)CC3CC3)CC2)cc1 [Example 414, 4-{[1-(cyclopropylacetyl)piperidin-4-yl]oxy}-N-(imidazo[1,2-a]pyridin-7-ylmethyl)benzamide] | 0.000307 | 0.853 | 2.63
O=C(NCc1ccn2ccnc2c1)c1ccc(OC2CCN(C(=O)c3ccccc3)CC2)cc1 [Example 415, 4-[(1-benzoylpiperidin-4-yl)oxy]-N-(imidazo[1,2-a]pyridin-7-ylmethyl)benzamide] | 0.000246 | 0.234 | 1.62
CC(C)OCC(=O)N1CCC(Oc2ccc(C(=O)NCc3ccn4ccnc4c3)cc2)CC1 [Example 416, N-(imidazo[1,2-a]pyridin-7-ylmethyl)-4-({1-[(propan-2-yloxy)acetyl]piperidin-4-yl}oxy)benzamide] | 0.000318 | 0.659 | 2.5
CC(C)(O)C(=O)N1CCC(Oc2ccc(C(=O)NCc3ccn4ccnc4c3)cc2)CC1 [Example 417, 4-{[1-(2-hydroxy-2-methylpropanoyl)piperidin-4-yl]oxy}-N-(imidazo[1,2-a]pyridin-7-ylmethyl)benzamide] | 0.000264 | 0.867 | 6.84
O=C(NCc1ccn2ccnc2c1)c1ccc(OC2CCN(C(=O)[C@H]3CCCO3)CC2)cc1 [Example 418, N-(imidazo[1,2-a]pyridin-7-ylmethyl)-4-({1-[(2R)-tetrahydrofuran-2-ylcarbonyl]piperidin-4-yl}oxy)benzamide] | 0.000233 | 0.866 | 4.75
O=C(NCc1ccn2ccnc2c1)c1ccc(OC2CCN(C(=O)[C@@H]3CCCO3)CC2)cc1 [Example 419, N-(imidazo[1,2-a]pyridin-7-ylmethyl)-4-({1-[(2S)-tetrahydrofuran-2-ylcarbonyl]piperidin-4-yl}oxy)benzamide] | 0.000197 | 0.365 | 2.43
O=C(NCc1ccn2ccnc2c1)c1ccc(OC2CCN(C(=O)C3CCOCC3)CC2)cc1 [Example 420, N-(imidazo[1,2-a]pyridin-7-ylmethyl)-4-{[1-(tetrahydro-2H-pyran-4-ylcarbonyl)piperidin-4-yl]oxy}benzamide] | 0.000226 | 0.147 | 2.71
O=C(NCc1ccn2ccnc2c1)c1ccc(OC2CCN(C(=O)C3COCCO3)CC2)cc1 (stereo not drawn) [Example 421, 4-{[1-(1,4-dioxan-2-ylcarbonyl)piperidin-4-yl]oxy}-N-(imidazo[1,2-a]pyridin-7-ylmethyl)benzamide] | 0.000271 | 0.317 | 2.45
O=C(NCc1ccn2ccnc2c1)c1ccc(OC2CCN(C(=O)CC3CCOCC3)CC2)cc1 [Example 422, N-(imidazo[1,2-a]pyridin-7-ylmethyl)-4-{[1-(tetrahydro-2H-pyran-4-ylacetyl)piperidin-4-yl]oxy}benzamide] | 0.000212 | 0.109 | 1.72
O=C(NCc1ccn2ccnc2c1)c1ccc(OC2CCN(C(=O)CN3CCOCC3)CC2)cc1 [Example 423, N-(imidazo[1,2-a]pyridin-7-ylmethyl)-4-{[1-(morpholin-4-ylacetyl)piperidin-4-yl]oxy}benzamide] | 0.000338 | 0.187 | 8.26
CC(=O)N1CC(Oc2ccc(NC(=O)NCc3ccn4ccnc4c3)cc2)C1 [Example 424, 1-{4-[(1-acetylazetidin-3-yl)oxy]phenyl}-3-(imidazo[1,2-a]pyridin-7-ylmethyl)urea] | 0.000494 | 0.521 | 0.988
CC(C)C(=O)N1CC(Oc2ccc(NC(=O)NCc3ccn4ccnc4c3)cc2)C1 [Example 425, 1-(imidazo[1,2-a]pyridin-7-ylmethyl)-3-(4-{[1-(2-methylpropanoyl)azetidin-3-yl]oxy}phenyl)urea] | 0.000227 | 0.069 | 0.153
CC[C@H](C)C(=O)N1CC(Oc2ccc(NC(=O)NCc3ccn4ccnc4c3)cc2)C1 [Example 426, 1-(imidazo[1,2-a]pyridin-7-ylmethyl)-3-[4-({1-[(2S)-2-methylbutanoyl]azetidin-3-yl}oxy)phenyl]urea] | 0.000169 | 0.0064 | 0.0256
O=C(NCc1ccn2ccnc2c1)Nc1ccc(OC2CN(C(=O)CC3CC3)C2)cc1 [Example 427, 1-(4-{[1-(cyclopropylacetyl)azetidin-3-yl]oxy}phenyl)-3-(imidazo[1,2-a]pyridin-7-ylmethyl)urea] | 0.00027 | 0.0622 | 0.15
O=C(NCc1ccn2ccnc2c1)Nc1ccc(OC2CN(C(=O)c3ccccc3)C2)cc1 [Example 428, 1-{4-[(1-benzoylazetidin-3-yl)oxy]phenyl}-3-(imidazo[1,2-a]pyridin-7-ylmethyl)urea] | 0.000258 | 0.0675 | 0.0871
CC(C)OCC(=O)N1CC(Oc2ccc(NC(=O)NCc3ccn4ccnc4c3)cc2)C1 [Example 429, 1-(imidazo[1,2-a]pyridin-7-ylmethyl)-3-[4-({1-[(propan-2-yloxy)acetyl]azetidin-3-yl}oxy)phenyl]urea] | 0.000396 | 0.0186 | 0.129
CC(C)(O)C(=O)N1CC(Oc2ccc(NC(=O)NCc3ccn4ccnc4c3)cc2)C1 [Example 430, 1-(4-{[1-(2-hydroxy-2-methylpropanoyl)azetidin-3-yl]oxy}phenyl)-3-(imidazo[1,2-a]pyridin-7-ylmethyl)urea] | 0.000264 | 0.0886 | 0.292
O=C(NCc1ccn2ccnc2c1)Nc1ccc(OC2CN(C(=O)[C@H]3CCCO3)C2)cc1 [Example 431, 1-(imidazo[1,2-a]pyridin-7-ylmethyl)-3-[4-({1-[(2R)-tetrahydrofuran-2-ylcarbonyl]azetidin-3-yl}oxy)phenyl]urea] | 0.000276 | 0.0719 | 0.301
O=C(NCc1ccn2ccnc2c1)Nc1ccc(OC2CN(C(=O)[C@@H]3CCCO3)C2)cc1 [Example 432, 1-(imidazo[1,2-a]pyridin-7-ylmethyl)-3-[4-({1-[(2S)-tetrahydrofuran2-ylcarbonyl]azetidin-3-yl}oxy)phenyl]urea] | 0.00033 | 0.0363 | 0.304
O=C(NCc1ccn2ccnc2c1)Nc1ccc(OC2CN(C(=O)C3CCOCC3)C2)cc1 [Example 433, 1-(imidazo[1,2-a]pyridin-7-ylmethyl)-3-(4-{[1-(tetrahydro-2H-pyran-4-ylcarbonyl)azetidin-3-yl]oxy}phenyl)urea] | 0.000248 | 0.0644 | 0.2
